Results on 24 compounds are retold here after US8637516B2 (IRM LLC, priority 2010, dated 2014).

Like-named read-outs stand apart in the source and are kept apart here. A value given as a limit tells only on which side of the number the result lay.

Series [1] has as its target T1, Ba/F3 cells transformed with human Tel-TrkA (Homo sapiens, UniProt P04629).
T1 construct: expressed in transfected cells; host or cells: Ba/F3 murine hematopoietic progenitor cells (luciferase expressing); the other entry of the earlier key: ETV6 (P41212, Transcription factor ETV6)
The series is described as follows: Proliferation of Ba/F3 cells transformed with human Tel-TrkA (Ba/F3 Tel-TrkA). In kind it is cell-based. From the text:
Compound dilutions were made in 384 well plates.
The emited luminiscence is quantified using ViewLux (PerkinElmer).

The next series deals with parental Ba/F3 cells. The series is described as follows: Proliferation of parental (untransformed, wt) Ba/F3 cells (BAF3/WT). In kind it is cell-based, murine. To be noted: Mus musculus, Table 1, parental cells with IL3, 48 hours. In outline:
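Parental Ba/F3 cells, maintained with mouse IL-3, were plated at 700 cells/well with compound (0.17 nM to 10 uM, 3-fold dilutions). After 48 h at 37 °C, proliferation was read by Bright-Glo luminescence.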

Series [2] in a line: Rat PK (PO 10 mg/kg, IV 3 mg/Kg). In kind it is in vivo. To be noted: for F / clearance / half-life / Vd / AUC / Cmax: Rat; for F / AUC / Cmax: PO 10 mg/kg, MC/Tween 80 suspension; for F / clearance / half-life / Vd: IV 3 mg/Kg; for clearance / half-life / Vd / AUC / Cmax: in vivo; for Vd: read-out: Vss.
The mark [3] stands for this setting: Table 1, 48 hours, Bright Glo luminescence, read-out: Ba/F3 Tel-TrkA.

T1 sequence (P04629 510-796 limits assumed): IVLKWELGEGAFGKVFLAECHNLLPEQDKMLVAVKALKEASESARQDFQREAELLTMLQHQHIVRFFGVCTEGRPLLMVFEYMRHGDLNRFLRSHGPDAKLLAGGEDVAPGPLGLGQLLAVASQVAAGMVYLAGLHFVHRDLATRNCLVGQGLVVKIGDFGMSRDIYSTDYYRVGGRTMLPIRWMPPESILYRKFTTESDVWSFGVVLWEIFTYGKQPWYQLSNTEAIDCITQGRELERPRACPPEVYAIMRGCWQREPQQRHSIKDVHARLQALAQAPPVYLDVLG

For `NC(=O)c1cnc2ccc(N3C[C@@H](F)C[C@@H]3c3cc(F)ccc3F)nn12` [X-242], the IC50 in series [1] (setting [3]) was 0.5 nM. For the same compound, the IC50 in series [1] (Table 2, read-out: Ba/F3_Te1-Trk-A) came out at 0.5 nM. In the series with parental Ba/F3 cells, the IC50 was determined as 2.45 µM. Further, in series [2], the F is reported as 28.2%, the clearance was 18.4 mL/min/kg, the half-life stood at 74.4 min and the Vd amounted to 1.58 L/kg. In addition, in series [2], the exposure (AUC) stood at 7.09 µM·h and the highest level (Cmax) was 1730 nM. Further, in series [2] (in words), the “AUC compared with compound #3 of WO2010/033941” value was “significant and unexpected increases”; the “Cmax compared with compound #3 of WO2010/033941” value is “significant and unexpected increases”.
For the compound `CC(=O)Nc1cnc2ccc(N3CCC[C@@H]3c3cc(F)ccc3F)nn12` [reference compound], in series [2], the F is on record as 1.5%, the clearance came to 79.2 mL/min/kg, the half-life was determined as 12 min and the Vd came out at 1 L/kg. In addition, in series [2], the AUC is 0.087 µM·h and the concentration peaked (Cmax) at 61 nM.
Regarding `O=C(NCC1CCCCC1)c1cnc2ccc(N3CCC[C@@H]3c3cccc(F)c3)nn12` [X-95], the results for the IC50 (in series [1] (setting [3]); in the series with parental Ba/F3 cells) were 118 nM and > 10 µM, respectively.
The corresponding values for `O=C(NC1CCS(=O)(=O)C1)c1cnc2ccc(N3CCC[C@@H]3c3cccc(F)c3)nn12` (stereo partly shown) [X-88] are 53 nM and > 10 µM.
The corresponding values for `O=C(NC1CCNCC1)c1cnc2ccc(N3C[C@@H](F)C[C@@H]3c3cccc(F)c3)nn12` [X-120] are 331 nM and > 10 µM.
For `O=C(NCC1CCC1)c1cnc2ccc(N3CCC[C@@H]3c3cccc(F)c3)nn12` [X-22], in that order: 47 nM and > 10 µM.
In the case of `NC(=O)NC(=O)c1cnc2ccc(N3CC(F)(F)C[C@@H]3c3cccc(F)c3)nn12` [X-248, (R)-N-carbamoyl-6-(4,4-difluoro-2-(3-fluorophenyl)pyrrolidin-1-yl)imidazo[1,2-b]pyridazine-3-carboxamide], the IC50 in series [1] (setting [3]) was 19 nM; in the series with parental Ba/F3 cells it was > 10 µM.
`O=C(NCCCN1CCOCC1)c1cnc2ccc(N3CCC[C@@H]3c3cccc(F)c3)nn12` [X-58]: the results for the IC50 (in series [1] (setting [3]); with parental Ba/F3 cells) were 390 nM and > 10 µM, respectively.
The corresponding values for `O=C(NCC1CC1)c1cnc2ccc(N3CCC[C@@H]3c3cccc(F)c3)nn12` [X-90] are 14 nM and > 10 µM.
Regarding `O=C(CCc1cccc(F)c1)c1cnc2ccc(N3CCC[C@@H]3c3cccc(F)c3)nn12` [X-127, (R)-3-(3-fluorophenyl)-1-(6-(2-(3-fluorophenyl)pyrrolidin-1-yl)imidazo[1,2-b]pyridazin-3-yl)propan-1-one], the IC50 in series [1] (setting [3]) was 38 nM; in the series with parental Ba/F3 cells it was > 10 µM.
For `O=C(NOCCO)c1cnc2ccc(N3CCC[C@@H]3c3cccc(F)c3)nn12` [X-147], in that order: 31 nM and > 10 µM.
`O=C(NC[C@@H]1CCCO1)c1cnc2ccc(N3CCC[C@@H]3c3cccc(F)c3)nn12` [X-85]: the IC50 was 54 nM in series [1] (setting [3]) and > 10 µM in the series on parental Ba/F3 cells.
In the case of `O=C(CCc1cccc(N2CCOCC2)n1)c1cnc2ccc(N3CCC[C@@H]3c3cccc(F)c3)nn12` [X-129], the IC50 is 88 nM in series [1] (setting [3]) and > 9.71 µM in the series with parental Ba/F3 cells.
The corresponding values for `O=C(N[C@@H]1CCOC1=O)c1cnc2ccc(N3CCC[C@@H]3c3cccc(F)c3)nn12` [X-100] are 27 nM and > 10 µM.
Regarding `O=C(N[C@H]1CC[C@@H](O)CC1)c1cnc2ccc(N3CCC[C@@H]3c3cccc(F)c3)nn12` [X-80], the values for the IC50 (in series [1] (setting [3]); with parental Ba/F3 cells) were 6 nM and > 10 µM, respectively.
The corresponding values for `CC(NC(=O)c1cnc2ccc(N3CCC[C@@H]3c3cccc(F)c3)nn12)c1ccc(F)cc1` (stereo partly shown) [X-42] are 127 nM and > 9.57 µM.
The corresponding values for `O=C(NC1CCCC1)c1cnc2ccc(N3CCC[C@@H]3c3cccc(F)c3)nn12` [X-48] are 37 nM and > 10 µM.
For `N/C(=N\OCCO)c1cnc2ccc(N3CCC[C@@H]3c3cccc(F)c3)nn12` [X-229], in that order: 331 nM and > 10 µM.
As to `O=C(NCCC1CCCO1)c1cnc2ccc(N3CCC[C@@H]3c3cccc(F)c3)nn12` (stereo partly shown) [X-23], the values for the IC50 (in series [1] (setting [3]); in the series on parental Ba/F3 cells) were 92 nM and > 10 µM, respectively.
As for `CC(C)NC(=O)c1cnc2ccc(N3CCC[C@@H]3c3cccc(F)c3)nn12` [X-39], the IC50 in series [1] (setting [3]) is 14 nM; in the series on parental Ba/F3 cells, > 10 µM.
As to `CS(=O)(=O)N1CCC(NC(=O)c2cnc3ccc(N4CCC[C@@H]4c4cccc(F)c4)nn23)CC1` [X-71, (R)-6-(2-(3-fluorophenyl)pyrrolidin-1-yl)-N-(1-(methylsulfonyl)piperidin-4-yl)imidazo[1,2-b]pyridazine-3-carboxamide], the IC50 is 22 nM in series [1] (setting [3]) and > 10 µM in the series on parental Ba/F3 cells.
On to `CC(C)(C)ONC(=O)c1cnc2ccc(N3CCC[C@@H]3c3cccc(F)c3)nn12` [X-145], for which the results for the IC50 (in series [1] (setting [3]); in the series with parental Ba/F3 cells) were 33 nM and > 10 µM, respectively.
The corresponding values for `CC(C)NC(=O)c1ccc(F)cc1C1CC(F)(F)CN1c1ccc2ncc(C(N)=O)n2n1` (stereo not shown) [X-250] are 64 nM and > 10 µM.
As for `NC(=O)c1cnc2ccc(N3C[C@@H](F)C[C@@H]3c3cc(F)cc(F)c3)nn12` [X-241], the IC50 came out at 3 nM in series [1] (setting [3]) and 6.7 µM in the series with parental Ba/F3 cells.

The half-life is the time needed for the level to fall by half in the phase considered. A lower half-life goes with fast loss. One may read the AUC as the area under the concentration-time curve, a measure of exposure. A lower AUC goes with low exposure. What is called Cmax is the peak of the concentration-time curve.
